This is an account of results in patent US7244738B2, “Arylamine-substituted quinazolinone compounds useful as alpha 1A/B adrenergic receptor antagonists” (Roche Palo Alto LLC, priority 2003, dated 2007).

Where a name gives a salt, the structure may show the parent alone.

With `CNCc1cccc(CN(C)c2nc(=O)c3c(OC)c(OC)c(OC)cc3[nH]2)c1` [Example 111, 5,6,7-Trimethoxy-2-[methyl-(3-methylaminomethyl-benzyl)-amino]-1H-quinazolin-4-one], the melting point (as a rule, the temperature, or range, at which the solid turns liquid) lay in the range of 124.9 to 127.6 °C.
`COc1cc2[nH]c(N(C)Cc3cccc(N4CCOC4=O)c3)nc(=O)c2c(C)c1OC` [Example 254, 6,7-Dimethoxy-5-methyl-2-{methyl-[3-(2-oxo-oxazolidin-3-yl)-benzyl]-amino}-1H-quinazolin-4-one] displayed a melting point of 254.8 to 257.1 °C.
`COc1cc2[nH]c(N(C)Cc3cccc(S(C)(=O)=O)c3)nc(=O)c2c(OC)c1OC` [Example 129, 2-[(3-Methanesulfonyl-benzyl)-methyl-amino]-5,6,7-trimethoxy-1H-quinazolin-4-one]: the melting point was 231.5 to 232.9 °C.
In turn, `COc1cc2[nH]c(N(C)Cc3cccc(OCC(=O)O)c3)nc(=O)c2c(C)c1OC` [Example 157, (3-{[(6,7-Dimethoxy-5-methyl-4-oxo-1,4-dihydro-quinazolin-2-yl)-methyl-amino]-methyl}-phenoxy)-acetic acid] displayed a melting point of over 300 °C.
As for `COC(=O)Nc1cccc(CN(C)c2nc(=O)c3c(OC)c(OC)c(OC)cc3[nH]2)c1` [Example 177, (3-{[Methyl-(5,6,7-trimethoxy-4-oxo-1,4-dihydro-quinazolin-2-yl)-amino]-methyl}-phenyl)-carbamic acid methylester], the melting point fell in the range of 230.9 to 232.1 °C.
Take `COc1cc2[nH]c(N(C)Cc3cccc(CN(C)CCO)c3)nc(=O)c2c(C)c1OC` [Example 33, 2-[(3-{[(2-Hydroxy-ethyl)-methyl-amino]-methyl}-benzyl)-methyl-amino]-6,7-dimethoxy-5-methyl-1H-quinazolin-4-one]: the melting point lay within 123.8 to 125.6 °C.
The result for `COc1cc2[nH]c(N(C)Cc3cccc(N4CCN(C)C4=O)c3)nc(=O)c2c(OC)c1OC` [Example 263, 5,6,7-Trimethoxy-2-{methyl-[3-(3-methyl-2-oxo-imidazolidin-1-yl)-benzyl]-amino}-1H-quinaozlin-4-one] reads 205.4 to 207.8 °C; that for `COc1cc2[nH]c(N(C)Cc3cccc(S(C)(=O)=O)c3)nc(=O)c2c(C)c1OC` [Example 128, 2-[(3-Methanesulfonyl-benzyl)-methyl-amino]-6,7-dimethoxy-5-methyl-1H-quinazolin-4-one], 269.5 to 271.5 °C.
In the case of `COc1cc2[nH]c(N(C)Cc3cccc(C(C)N(C)S(C)(=O)=O)c3)nc(=O)c2c(C)c1OC` (centres unmarked) [Example 26, N-[1-(3-{[(6,7-Dimethoxy-5-methyl-4-oxo-1,4-dihydro-quinazolin-2-yl)-methyl-amino]-methyl}-phenyl)-ethyl]-N-methyl-methanesulfonamide], the melting point fell in the range of 130 to 133.8 °C.
In turn, `COc1cc2[nH]c(N(C)Cc3ccc(C4=NCCN4C)cc3)nc(=O)c2c(C)c1OC` [Example 237, 6,7-Dimethoxy-5-methyl-2-{methyl[4-(1-methyl-,5-dihydro-1H-imidazol-2-yl)-benzyl]-amino}-1H-quinazolin-4-oine] registered a melting point of 179 to 181 °C.
Then `COCCNCc1ccc(CN(C)c2nc(=O)c3c(C)c(OC)c(OC)cc3[nH]2)cc1` (as salt: HCl) [Example 36, 6,7-Dimethoxy-2-({4-[(2-methoxy-ethylamino)-methyl]-benzyl}-methyl-amino)-5-methyl-1H-quinazolin-4-one], with 265 to 268 °C.
Compound `COc1cc2[nH]c(N(C)Cc3cccc(N4C=NC(C)(C)C4)c3)nc(=O)c2cc1OC` [Example 90, 2-{[3-(4,4-Dimethyl-4,5-dihydro-imidazol-1-yl)-benzyl]-methyl-amino}-6,7-dimethoxy-1H-quinazolin-4-one] came in with a melting point of 240 to 242 °C.
Then `COc1cc2[nH]c(N(C)CCc3cccc(/N=C(\C)N(C)C)c3)nc(=O)c2cc1OC` [Example 91, N′-(3-{2-[(6,7-Dimethoxy-4-oxo-1,4-dihydro-quinazolin-2-yl)-methyl-amino]-ethyl}-phenyl)-N,N-dimethyl-acetamidine], with 135 to 138.1 °C.
The result for `COc1cc2[nH]c(N(C)Cc3ccc4c(c3)CN(C)C4)nc(=O)c2c(C)c1OC` [Example 38, 6,7-Dimethoxy-5-methyl-2-[methyl-(2-methyl-2,3-dihydro-1H-isoindol-5-ylmethyl)-amino]-1H-quinazolin-4-one] reads 214.9 to 224.8 °C; that for `COCCNS(=O)(=O)c1cccc(CN(C)c2nc(=O)c3c(C)c(OC)c(OC)cc3[nH]2)c1` [Example 131, 3-{[(6,7-Dimethoxy-5-methyl-4-oxo-1,4-dihydro-quinazolin-2-yl)-methyl-amino]-methyl}-N-(2-methoxy-ethyl)-benzenesulfonamide], 163 to 164.9 °C; that for `COCCN1CCN=C1c1cccc(CN(C)c2nc(=O)c3c(C)c(OC)c(OC)cc3[nH]2)c1` [Example 246, 6,7-Dimethoxy-2-*{3-[1-(2-methoxy-ethyl)-4,5-dihydro-1H-imidazol-2-yl]-benzyl}-methyla-mino)-5-methyl-1H-quinazolin-4-one], 161 to 164.4 °C.
As for `CCNCCOc1cccc(CN(C)c2nc(=O)c3c(C)c(OC)c(OC)cc3[nH]2)c1` [Example 165, 2-{[3-(2-Ethylamino-ethoxy)-benzyl]-methyl-amino}-6,7-dimethoxy-5-methyl-1H-quinazolin-4-one], the melting point is 264.6 to 266.5 °C.
In turn, `COc1cc2nc(N(C)Cc3cccc(N4CCCC4=O)c3)[nH]c(=O)c2c(OC)c1OC` [Example H-1, 5,6,7-Trimethoxy-2-{methyl-[3-(2-oxo-pyrrolidin-1-yl)-benzyl]-amino}-1H-quinazolin-4-one] came in with a melting point of 165.5 to 166.5 °C.
The result for `COc1cc2[nH]c(N(C)Cc3cccc(Nc4nc(Cl)ncc4C)c3)nc(=O)c2c(OC)c1OC` [Example 217, 2-{[3-(2-Chloro-5-methyl-pyrimidin-4-ylamino)-benzyl]-methyl-amino}-5,6,7-trimethoxy-1H-quinazolin-4-one] reads 225.9 to 227 °C.
The compound `COc1cc2[nH]c(N(C)Cc3cccc(C(C)N4CCC4)n3)nc(=O)c2c(OC)c1OC` (centres unmarked) [Example 278, 2-{[6-(1-Aztidin-1-yl-ethyl)-pyridin-2-ylmethyl]-methyl-amino}-5,6,7-trimethoxy-1H-quinazolin-4-one] came in with a melting point of 70.8 to 78.8 °C.
Then `COc1cc2[nH]c(N(C)Cc3cccc(N4CCCC4)c3)nc(=O)c2cc1OC.Cl`, with 220 to 223 °C; and `COc1cc2[nH]c(N(C)Cc3cccc(CC4CCN(C)CC4)c3)nc(=O)c2c(OC)c1OC` (as salt: HCl) [Example 127, 5,6,7-Trimethoxy-2-{methyl-[3-(1-methyl-piperidin-4-ylmethyl)-benzyl]-amino}-1H-quinazolin-4-one], with 175 to 195 °C.
Then `COCCN1Cc2ccc(CN(C)c3nc(=O)c4c(C)c(OC)c(OC)cc4[nH]3)cc2C1` [Example 19, 6,7-Dimethoxy-2-{[2-(2-methoxy-ethyl)-2,3-dihydro-1H-isoindol-5-ylmethyl]-methyl-amino}-5-methyl-1H-quinazolin-4-one], with 173.3 to 177.9 °C; and `CNCCOc1ccc(CN(C)c2nc(=O)c3c(C)c(OC)c(OC)cc3[nH]2)cc1OC` [Example 29, 6,7-Dimethoxy-2-{[3-methoxy-4-(2-methylamino-ethoxy)-benzyl]-methyl-amino}-5-methyl-1H-quinazolin-4-one], with 168.9 to 169.8 °C; and `COCCCN(C)c1cccc(CN(C)c2nc(=O)c3c(OC)c(OC)c(OC)cc3[nH]2)c1` (as salt: HCl) [Example 189, 5,6,7-Trimethoxy-2-({3-[(3-methoxy-propyl)-methyl-amino]-benzyl}-methyl-amino)-1H-quinazolin-4-one], with 166.7 to 168.1 °C.
Then `COCCN1Cc2ccc(CN(C)c3nc(=O)c4c(OC)c(OC)c(OC)cc4[nH]3)cc2C1` [Example 18, 5,6,7-Trimethoxxy-2-{[2-(2-methoxy-ethyl)-2,3-dihydro-1H-isoindol-5-ylmethyl]-methyl-amino}-1H-quinazolin-4-one], with 133.3 to 136.6 °C; and `CNC(=O)c1cccc(CN(C)c2nc(=O)c3c(C)c(OC)c(OC)cc3[nH]2)c1` [Example 136, 3-{[(6,7-Dimethoxy-5-methyl-44-oxo-1,4-dihydro-quinazolin-2-yl)-methyl-amino]-methyl}-N-methyl-benzamide], with 243.3 to 245.1 °C.
Compound `CCN(C)Cc1cccc(CN(C)c2nc(=O)c3c(C)c(OC)c(OC)cc3[nH]2)c1` [Example 71, 2-({3-[(Ethyl-methyl-amino)-methyl]-benzyl}-methyl-amino)-6,7-dimethoxy-5-methyl-1H-quinazolin-4-one] came in with a melting point of 146.7 to 150.8 °C.
Then `COc1cc2[nH]c(N(C)Cc3ccc(OCCCN(C)C)cc3)nc(=O)c2c(C)c1OC` (as salt: HCl) [Example 44, 2-{[4-(3-Dimethylamino-propoxy)-benzyl]-methyl-amino}-6,7-dimethoxy-5-methyl-1H-quinazolin-4-one], with 191 to 192.2 °C; and `COc1cc2[nH]c(N(C)Cc3cccc(N(C)S(=O)(=O)N(C)C)c3)nc(=O)c2c(C)c1OC` [Example 170, N-(3-{[(6,7-dimethoxy-5-methyl-4-oxo-1,4-dihydro-quinazolin-2-yl)-methyl-amino]-methyl}-phenyl)-N,N′,N′-trimethylsulfamide], with 160 to 161.7 °C; and `COCCN(C)c1cccc(CN(C)c2nc(=O)c3c(OC)c(OC)c(OC)cc3[nH]2)c1` [Example G-20, 5,6,7-Trimethoxy-2-({3-[(2-methoxy-ethyl)-methyl-amino]-benzyl}-methyl-amino)-1H-quinazolin-4-one], with 179.3 to 181.2 °C.
The result for `COCCN(C)Cc1cccc(CN(C)c2nc(=O)c3c(OC)c(OC)c(OC)cc3[nH]2)c1` (as salt: hydrochloride) [Example 117, 5,6,7-Trimethoxy-2-[(3-{[(2-methoxy-ethyl)-methyl-amino]-methyl}-benzyl)-methyl-amino]-1H-quinazolin-4-one] reads 162.9 to 164.5 °C.
